# Assay results taken from US20220017833A1, “Methods and Compositions for Scavenging Sulfides from Hydrocarbon Fluids and Aqueous Streams” (Nexgen Oilfield Chemicals, LLC, priority 2019, published 2022).
# Assays:
# [1] = Storage Capacity Loss Test; type: physicochemical; details: for Min to BT / Min to FD: Short Reaction Time Capacity Test, diaminol in water + 10.00 g MeOH, 20 g test
# Method: This test compares the scavenging capacity after 24 hours of storage of the scavenger system at room temperature to that after 72 hours of storage thereof at room temperature. In one embodiment, a sample of the scavenger system is made fresh and split in two portions. The Short Reaction Time Capacity Test is run on one portion after standing 24 hours on the bench at room temperature. Then the same test is run on the other portion after standing 72 hours on the bench at room temperature. The two measured capacities are compared to see if the product degrades in storage. Importantly, some scavengers lose activity with time due to secondary reactions and re-equilibrations that degrade their active form.
# Table 5 compares different alkyl substituents on glyoxy alkyl diaminols. These compounds were prepared by reacting one mole of glyoxal, as a 40% aqueous solution, with 2.1 moles of various primary amines in a sufficient amount of MeOH to keep the product from separating into an aqueous layer and a non-aqueous layer. For each amine substituent: methyl (Me), ethyl (Et), normal-propyl (n-Pr), iso-propyl (i-Pr), and iso-propanol [1-propan-2-ol] (i-PrOH), the presence or absence of alpha branching on that substituent is noted. The weight ratios of the diaminols, water, and MeOH, are listed, along with their equivalent weights (Eq. Wt.) and the total equivalents per 20 g test (Eq/test). To measure the product stability, the Storage Capacity Loss between 24 and 72 hours was determined. As described earlier, a fresh sample of the scavenger system is split in two portions. The Short Reaction Time Capacity Test is run on one portion after standing 24 hours on the bench at room temperature. Then the same test is run on the other portion after standing 72 hours on the bench at room temperature. Both the 24-hr and 72-hr capacities (Min to FD and BT) and molar capacities (Min/Eq FD and BT) are listed in the table with the percent capacity loss for each substituent calculated below it. […] The others lost 34% to 77% of their scavenging capacity in 48 hours (72-24), presumably due to secondary reactions and re-equilibrations that degraded their active form. In this system employing only methanol, all of these compositions failed both the Hot Spray Fouling Test and the Spent Water Flowability Test. Two of them, the iso-propylamine [propan-2-amine] and the iso-propanolamine [1-aminopropan-2-ol] passed the Spent Solids Fouling Test.
# [2] = Short Reaction Time Capacity Test; details: 20 g test; for Min to BT / Min to FD: 3.00 g BuOH, GIDA 6.68 g as GID, 3.32 g water
# Source text: Referring now to FIG. 1, therein is schematically depicted a sulfide scavenger testing system 100 comprising a gas source 2, a flow regulator 4, gas treatment vessel 6, and a sulfide measurement device 8. In one testing embodiment, gas (not shown) is flowed from gas source 2 via gas feed piping 10 into flow regulator 4, which regulates gas flow to gas treatment vessel 6 via regulated gas feed piping 12. The regulated gas flows into gas treatment vessel 6 via a bottom inlet 14 thereof, where it comes into contact with a volume of liquid 16 comprising a sulfide scavenger system (not separately labeled). The gas, having been treated by the liquid, flows out of a top end 18 of gas treatment vessel 6 and flows into sulfide measurement device 8 via treated gas outlet piping 20.
# In one embodiment, gas flow from the flow regulator 4 is controlled such that the gas is flowed into the gas treatment vessel 6 at a flow rate of 100 mL/min. up to 500 mL/min. In one embodiment, a gas sparging device, such as a fine pore frit (not shown), is utilized to better distribute the gas into the scavenger liquid. In one embodiment, the gas treatment vessel 6 contains about 20 g of a liquid H2S scavenger, such as one or more diaminols/diaminacetals in a chemical system as described above. In one aspect, to the extent possible, H2S and/or CO2 are scavenged from the gas by the scavenger and the treated (“sweet”) gas exits top end 18 of treatment vessel 6. In one embodiment, sulfide measurement device 8 monitors the concentration of H2S leaving treatment vessel 6. in the gas phase. In other embodiments (not shown), a CO2 measurement device may be similarly employed to monitor the concentration of CO2 leaving treatment vessel 6 in the gas phase.
# In one embodiment, gas is flowed through sulfide scavenger testing system 100 until the outlet H2S concentration reaches a 4,000 ppm target, at which point the test is concluded. This relative time duration before the target is reached is used to compare H2S scavenger capacity given the kinetics of each sulfide scavenger system. The longer the duration, the better the capacity.
# The fine bubbles produced rise slowly, providing plenty of time, plenty of surface area, and a short path through which the H2S must diffuse to the scavenger in the liquid 16. Detector 8 on the outlet line 20 is used to measure H2S concentration in the exiting gas. The times to first detection (FD), at a threshold of 15 ppm, and to complete breakthrough (BT), at the detector saturation of 4000 ppm (0.4%), are recorded. This test is designed to measure the effective scavenging capacity in applications with long contact times.
# This test is the same as the Long Reaction Time Capacity Test, but without the gas sparging device, so as to produce larger bubbles, and at a higher feed rate of 200 mL/min, after the first 8 minutes at 100 mL/min. The larger bubbles rise quickly through the liquid 16, providing little time, little surface area, and a long path through which the H2S must diffuse to the scavenger in the liquid. This test is designed to measure the effective scavenging capacity in applications with short contact times. It is far more reaction rate dependent than the Long Reaction Time Capacity and so is a more critical and differentiating test.
# With triazine, one H2S reacts twice with the same molecule of triazine, replacing one amine, so the rate is “first order”, meaning proportional to the concentration of triazine.
# [3] = Spent Solids Fouling Test; type: physicochemical; details: Table 5, glyoxy alkyl diaminol in water and MeOH only
# Source text: In every application, the active component of the scavenger system reacts with H2S to from a reaction product. Once all the active scavenger has been so reacted, it is spent. […] Thioethers are much less water soluble than amines, so the reaction products are often insoluble. Thioether bridges also connect spent scavenger molecules to each other, thereby forming insoluble polymeric solids. These solids accumulate and foul (interfere with the function) of the vessel, line, or equipment to which the scavenger is being fed. […] If any solids or insoluble viscous liquids are observed poorly dispersed in the spent scavenger system or clinging to the sides of the vessel, the scavenging system employed in that Long Reaction Time Capacity Test fails this test. A homogeneous, single-phase solution or thin layer of readily flowable non-sticking liquid constitutes a pass.
# [4] = 72-24 Hrs storage at room temperature
# [5] = Sample Age 24 Hrs at room temperature
# [6] = Sample Age 72 Hrs at room temperature
# [7] = Eq/test GIDAc 0.114, GIDA 0.076 (8.00 g MeOH, 2.00 g BuOH)
# [8] = Eq/test Triazine 0.068, GIDAc 0.157, GIDA 0.076 (7.50 g MeOH, 2.50 g BuOH)
# [9] = GIDAc 8.00 g as GID, 9.00 g MeOH, 8.00 g MeOH, 2.00 g BuOH
# [10] = Triazine 7.50 g + 12.50 g water, GIDAc 11.00 g as GID, 6.00 g MeOH, 7.50 g MeOH, 2.50 g BuOH
smiles,measurement,setting,value
"CC(C)NC(O)C(O)NC(C)C (stereo not drawn) [GIDA, 1,2-bis[(propan-2-yl)amino]ethane-1,2-diol]",BT Capacity Loss,[1]; [4],−2%
same,FD Capacity Loss,[1]; [4],0%
same,Min/Eq BT,[1]; Sample Age 24 Hrs,528 Min/Eq
same,Min/Eq FD,[1]; Sample Age 24 Hrs,409 Min/Eq
same,Min to BT,[1]; [5],40 min
same,Min to FD,[1]; [5],31 min
same,Min/Eq BT,[1]; Sample Age 72 Hrs,541 Min/Eq
same,Min/Eq FD,[1]; Sample Age 72 Hrs,409 Min/Eq
same,Min to BT,[1]; [6],41 min
same,Min to FD,[1]; [6],31 min
same,loss of scavenging capacity (degradation) in storage,"[1]; in 48 hours (72-24), room temperature",no degradation
same,Min/Eq BT,[2]; [7],607 Min/Eq
same,Min/Eq FD,[2]; [7],515 Min/Eq
same,Min/Eq BT,[2]; [8],541 Min/Eq
same,Min/Eq FD,[2]; [8],462 Min/Eq
same,Min to BT,[2]; [9],46 min
same,Min to FD,[2]; [9],39 min
same,Min to BT,[2]; [10],41 min
same,Min to FD,[2]; [10],35 min
same,Spent Solids Fouling,[3]; listed as i-Pr,Pass
same,Spent Solids Fouling,[3]; listed as iso-propylamine,passed
